In publication PMC12144893, “Synthesis and Characterization of Photoswitchable Covalent Ligands for the β2‐Adrenoceptor” (Angewandte Chemie (International Ed. in English), 2025):
Like-named read-outs stand apart in the source and are kept apart here.

Tests used:
human β2AR = biological target: T1, human β2AR (Homo sapiens, UniProt P07550); assay type: cell-based
T1 construct: host or cells: HEK-293T

[1] = UV/Vis spectra of E- and Z-isomers in Tris buffer; assay type: physicochemical; details: for λmax (E): E-isomer, Tris buffer 50 mM Tris, 1 mM EDTA, 1 mM MgCl2; for λmax (Z): Z-isomer, Tris buffer
Description: 1.4. Photophysical Characterization
1.4.1. UV/Vis Spectra and Cycle Performance
UV/Vis absorption spectra were measured to characterize the photophysical properties of the synthesized pho to switches. The pho to switches were diluted with TRIS buffer (50 m M Tris, 1 m M EDTA, 1 mM MgCl2, pH 7.4) to end up with a concentration of 10 µM + 0.5% DMSO. The spectra were measured in a quartz glass cuvette after different illuminations with LED modules. First, the solution was illuminated with 365 nm light for 10 s to switch to the Z -isomer. After measuring the UV/Vis spectrum of the Z-isomer (purple curve), the solution was illuminated with 528 nm light for 120 s and the spectrum for the E -isomer (black curve) was measured. This cycle was repeated ten times to show the stability and repeatability of switching the compound. The isosbestic points could be determined from an overlay of the UV/Vis spectra of both isomers.
(§1) Wavelength λ [nm] Cycle Number
Figure S10. UV/Vis spectr um and cycle performance of 1.
Figure S11. UV/Vis spectr um and cycle performance of 2.
(also on this page, place not known: photoswitches. photoswitches mM mM MgCl 2, 0.5 % E-isomer coul d spectrum spectrum 600 0,15Absorbance 0 Absorbance 340 nm 600 0,18Absorbance 0 Absorbance 335 nm)

[2] = Photostationary states by analytical HPLC at isosbestic points; assay type: physicochemical; details: single experiment; for PSS (E → Z): irradiation with 365 nm; for PSS (Z → E): irradiation with 528 nm
Description: as §1
Figure S18. UV/Vis spectr um and cycle performance of 7.
1.4.2. Photostationary States
Photostationary states (PSS) were measured on analytical HPLC. To determine the photostationary state of the photoswitches the samples (0.2 mM in Tris buffer + 2% DMSO) were irradiated first with 3 65 nm to get the Z -isomer (Peak 1). Afterwards, the sample was irradiated with 528 nm to get back to the E-isomer (Peak 2). The samples were measured at the isosbestic points.
Figure S19. Photostationary state of 1 after irradiation with 365 nm (switching to the Z - isomer).
Figure S20. Photostationary state of 1 after irradiation with 528 nm (switching to the E -isomer). […]

[3] = Thermal half-life of the metastable Z isomer; assay type: physicochemical; details: Tris buffer + 0.5% DMSO
Description: Figure S36. Photostationary state of 9 after irradiation with 528 nm (switching to the E -isomer).
1.4.3. Thermal Half-lives
For the determination of the thermal stability of the metastable Z isomer a 50 µM solution in Tris buffer
+ 0.5% DMSO was irradiated with 365 nm. For 4 weeks the absorption at 335 nm was measured every
ExpDec1 Fit of Sheet1 B 0,35 ExpDec1 Fit of Sheet1 B
Modell ExpDec1 Modell ExpDec1
Gle i c hung y = A 1 *e xp (-x/t1 ) + y0 Gle i c hung y = A 1 *e xp (-x/t1 ) + y0
Ze i c hne n B Ze i c hne n B
(also on this page, place not known: E-isomer). 0,45absorption 335 nm Gleichung A1*exp(-x/t1) Zeichnen (COD) 0,50absorption 335 nm Gleichung A1*exp(-x/t1) Zeichnen (COD)) […]

[4] = E-isomer, β2AR wild type, mean ± S.E.M.
[5] = HEK-293T, E-isomer, β2AR wild type, relative to maximum effect of norepinephrine, read-out: Emax
[6] = HEK-293T, Z-isomer, β2AR wild type, relative to maximum effect of norepinephrine, read-out: Emax
[7] = Z-isomer, β2AR wild type, mean ± S.E.M.
[8] = HEK-293T, reference agonists, β2AR wild-type, relative to norepinephrine, read-out: Emax

T1 sequence (P07550 whole entry): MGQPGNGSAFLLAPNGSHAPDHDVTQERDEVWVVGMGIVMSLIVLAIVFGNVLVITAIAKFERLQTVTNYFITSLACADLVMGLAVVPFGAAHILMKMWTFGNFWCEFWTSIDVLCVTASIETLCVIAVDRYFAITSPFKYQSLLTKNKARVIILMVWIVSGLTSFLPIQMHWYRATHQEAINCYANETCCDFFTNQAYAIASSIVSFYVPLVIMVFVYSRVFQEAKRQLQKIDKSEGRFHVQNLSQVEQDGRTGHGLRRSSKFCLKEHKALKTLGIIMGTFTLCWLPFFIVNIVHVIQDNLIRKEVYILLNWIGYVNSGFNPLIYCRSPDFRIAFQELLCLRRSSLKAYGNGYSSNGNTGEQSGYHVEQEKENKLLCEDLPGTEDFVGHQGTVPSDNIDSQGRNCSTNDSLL

Structure (SMILES) | EC50 (human β2AR; [4]) [µM] | Emax (human β2AR; [5]) [%] | Emax (human β2AR; [6]) [%] | EC50 (human β2AR; [7]) [µM] | λmax (E) [1] [nm] | λmax (Z) [1] [nm] | PSS (E → Z) [2] [%] | PSS (Z → E) [2] [%] | t1/2 [3] [days] | Emax (human β2AR; E-isomer, β2AR wild type, relative to maximum effect of norepinephrine) [%] | Emax (human β2AR; [8]) [%] | EC50 (human β2AR; Z-isomer, β2AR wild type) [µM] | Emax (human β2AR; Z-isomer, β2AR wild type, relative to maximum effect of norepinephrine) [%]
Cc1nn(CCCN2C(=O)C=CC2=O)c(C)c1/N=N/c1ccc(CCNCC(O)c2ccc(O)c3c2OCC(=O)N3)cc1 (centres unmarked) [Compound 9] | 0.072 ± 0.012 | 88 ± 5 | 85 ± 5 | 0.057 ± 0.0085 | 339 | 435 | 95 | 93 | 20.4 |  |  |  | 
Cc1nn(CCSSCCN)c(C)c1N=Nc1ccc(CCNCC(O)c2ccc(O)c3c2OCC(=O)N3)cc1 (mixture of isomers) [Compound 3] | 0.0072 ± 0.003 | 85 ± 2 | 78 ± 4 | 0.017 ± 0.0063 | 337 | 434 | 95 | 89 | 15.2 |  |  |  | 
Cc1nn(CCSSCCN(C)C)c(C)c1/N=N/c1ccc(CCNC[C@H](O)c2ccc(O)c(O)c2)cc1 [Compound 1, (R,E)-4-(2-((4-((1-(2-((2-(Dimethylamino)ethyl)disulfaneyl)ethyl)-3,5-dimethyl-1H-pyrazol-4-yl)diazenyl)phenethyl)amino)-1-hydroxyethyl)benzene-1,2-diol] | 0.63 ± 0.072 | 108 ± 3 | 78 ± 1 | 0.48 ± 0.11 | 335 | 435 | 89 | 90 | 3.9 |  |  |  | 
Cc1nn(CCCSSCCN(C)C)c(C)c1/N=N/c1ccc(CCNC[C@H](O)c2ccc(O)c(O)c2)cc1 [Compound 2] | 0.94 ± 0.034 | 96 ± 2 | 97 ± 1 | 0.7 ± 0.035 | 335 | 433 | 89 | 87 | 4.9 |  |  |  | 
CNC[C@H](O)c1ccc(O)c(O)c1 [epinephrine, reference compound] |  |  |  |  |  |  |  |  |  |  | 103 |  | 
Cc1nn(CCCSSCCN)c(C)c1/N=N/c1ccc(CCNCC(O)c2ccc(O)c3c2OCC(=O)N3)cc1 (centres unmarked) [Compound 4] | 0.039 ± 0.007 | 88 ± 3 | 87 ± 5 | 0.0098 ± 0.0009 | 339 | 436 | 96 | 92 | 15.7 |  |  |  | 
Cc1nn(CCN2C(=O)C=CC2=O)c(C)c1/N=N/c1ccc(CCNCC(O)c2ccc(O)c3c2OCC(=O)N3)cc1 (centres unmarked) [Compound 8] | 0.053 ± 0.0026 | 84 ± 5 | 90 ± 2 | 0.075 ± 0.0023 | 337 | 435 | 95 | 94 | 18.6 |  |  |  | 
Cc1nn(CCN2C(=O)C=CC2=O)c(C)c1/N=N/c1ccc(CCNC[C@H](O)c2ccc(O)c(O)c2)cc1 [Compound 7] | 1.5 | 103 ± 4 | 101 ± 10 | 4.3 | 335 | 433 | 92 | 85 | 4.5 |  |  |  | 
Cc1nn(CCCCCSSCCN)c(C)c1/N=N/c1ccc(CCNCC(O)c2ccc(O)c3c2OCC(=O)N3)cc1 (centres unmarked) [Compound 6] | 0.038 ± 0.0058 | 70 ± 2 | 89 ± 1 | 0.021 ± 0.0013 | 340 | 435 | 95 | 93 | 13.3 |  |  |  | 
NC[C@H](O)c1ccc(O)c(O)c1 [norepinephrine, reference compound] |  |  |  |  |  |  |  |  |  |  | 100 |  | 
Cc1nn(CCCCSSCCN)c(C)c1/N=N/c1ccc(CCNCC(O)c2ccc(O)c3c2OCC(=O)N3)cc1 (centres unmarked) [Compound 5] | 0.079 ± 0.025 | 98 ± 1 | 93 ± 4 | 0.0099 ± 0.0017 | 338 | 436 | 94 | 92 | 16.7 |  |  |  | 

More lines, now with the values ahead:

EC50 (human β2AR; [4]) [µM] | Emax (human β2AR; [5]) [%] | Emax (human β2AR; [6]) [%] | EC50 (human β2AR; [7]) [µM] | λmax (E) [1] [nm] | λmax (Z) [1] [nm] | PSS (E → Z) [2] [%] | PSS (Z → E) [2] [%] | t1/2 [3] [days] | Emax (human β2AR; E-isomer, β2AR wild type, relative to maximum effect of norepinephrine) [%] | Emax (human β2AR; [8]) [%] | EC50 (human β2AR; Z-isomer, β2AR wild type) [µM] | Emax (human β2AR; Z-isomer, β2AR wild type, relative to maximum effect of norepinephrine) [%] | Structure (SMILES)
0.0072 |  |  |  |  |  |  |  |  |  |  |  |  | Cc1nn(CCSSCCN)c(C)c1/N=N/c1ccc(CCNCC(O)c2ccc(O)c3c2OCC(=O)N3)cc1 (centres unmarked) [Compound E-3]
 |  |  |  |  |  |  |  |  | 70 |  |  |  | Cc1nn(CCCCCSSCCN)c(C)c1/N=N/c1ccc(CCNCC(O)c2ccc(O)c3c2OCC(=O)N3)cc1 (racemic) [Compound E-6]
 |  |  |  |  |  |  |  |  |  |  | 0.48 |  | Cc1nn(CCSSCCN(C)C)c(C)c1/N=N\c1ccc(CCNC[C@H](O)c2ccc(O)c(O)c2)cc1 [Compound Z-1]
 |  |  |  |  |  |  |  |  |  |  | 4.3 |  | Cc1nn(CCN2C(=O)C=CC2=O)c(C)c1/N=N\c1ccc(CCNC[C@H](O)c2ccc(O)c(O)c2)cc1 [Compound Z-7]
0.079 |  |  |  |  |  |  |  |  |  |  |  |  | Cc1nn(CCCCSSCCN)c(C)c1/N=N/c1ccc(CCNCC(O)c2ccc(O)c3c2OCC(=O)N3)cc1 (racemic) [Compound E-5]
 |  |  |  |  |  |  |  |  |  |  |  | 85 | Cc1nn(CCCCCSSCCN)c(C)c1/N=N\c1ccc(CCNCC(O)c2ccc(O)c3c2OCC(=O)N3)cc1 (racemic) [Compound Z-6]
